Reference: PMC7822874, “Chemoprotective antimalarials identified through quantitative high-throughput screening of Plasmodium blood and liver stage parasites” (Scientific Reports, 2021)
Like-named read-outs stand apart in the source and are kept apart here.

Key:
in vitro = conditions: human
[1] = system: Plasmodium falciparum Dd2 asexual blood stage parasites; assay: microbe, parasite or virus in culture; parameters: species or system Plasmodium falciparum Dd2 in human erythrocytes; single determination (one 11-point concentration-response curve); conditions: Plasmodium falciparum, DD2, Erythrocyte, 72 h; read-out: AC50
[2] = system: P. berghei-ANKA-GFP-LucCON liver stage parasites in HepG2-A16-CD81EGFP cells; assay: P. berghei liver stage Pb-Luc assay, Method 1 (UCSD, 1536-well); assay type: cell-based, Plasmodium berghei; conditions: for Max Resp (signal direction of the dose response) / AC50 / Log AC50 (M): Method 1; for Max Resp (signal direction of the dose response): Decrease = decreasing P. berghei viability with dose, Increase = increasing signal, Inactive = no dose response; for activity at 1 µM / activity at 3 µM: 48 h, average of 2 wells on a 1536 well plate; for activity at 1 µM: 1 uM (compounds provided at 10 mM); for activity at 3 µM: 3 uM (compounds provided at 10 mM)
[3] = HepG2-A16-CD81EGFP cells, uninfected
[4] = Plasmodium berghei, Hill fit, 50% of maximum activity response, read-out: AC50
[5] = Plasmodium berghei, log10 of molar AC50 from Hill fit, read-out: Log AC50 (converted)
[6] = Plasmodium berghei, column 11, read-out: Pb-Luc (P. berghei liver stage), % of control, lower concentration, first repeat
[7] = Plasmodium berghei, column 12, read-out: Pb-Luc (P. berghei liver stage), % of control, lower concentration, second repeat
[8] = Plasmodium berghei, column 8, read-out: Pb-Luc (P. berghei liver stage), % of control, higher concentration, first repeat
[9] = Plasmodium berghei, column 9, read-out: Pb-Luc (P. berghei liver stage), % of control, higher concentration, second repeat
[10] = Hill fit, 50% of maximum activity response, read-out: AC50
[11] = log10 of molar AC50 from Hill fit

Compound	viability at 48 h (in vitro; [3])	viability at 48 h, 1 µM (in vitro; [3])	AC50 [1]	Max Resp (signal direction of the dose response) [2]	AC50 [2, 4]	AC50 [2, 5]	viability at 48 h, 3 µM (in vitro; [3])	activity at 1 µM [2, 6]	activity at 1 µM [2, 7]	activity at 3 µM [2, 8]	activity at 3 µM [2, 9]	AC50 [2, 10]	Log AC50 (M) [2, 11]	viability at 66 h (in vitro; [3])	viability at 66 h (in vitro)
CCCCCCCNC(=O)C1(CC2CC(c3ccc(Cl)cc3)=NO2)CCN(C(=O)c2cc(OCC)c(OCC)c(OCC)c2)CC1 (centres unmarked) [MLS001143958-01]	103%	103%	3350 nM	Decrease	2820 nM	2820 nM	–	–	–	–	–	–	–	–	–
Cc1ccc(C)c(NC(=O)CN(C)C(=O)c2ccc(-c3ccc(Cl)cc3)o2)c1 [MLS001077062-01]	–	98%	4730 nM	–	–	–	102%	137%	128%	154%	145%	–	–	–	–
O=C(Nc1cccnc1)c1cc(-c2cccnc2)nc2ccc(Br)cc12 [MLS000582206-01]	–	109%	2660 nM	–	–	–	104%	112%	106%	80%	95%	–	–	–	–
CCOC(=O)CCCCC(=O)c1[nH]c(=O)[nH]c1Cn1ccnc1 [MLS000092014-01]	–	98%	2660 nM	–	–	–	107%	140%	105%	84%	105%	–	–	–	–
Oc1cc(Cc2ccccc2)cnc1CN1CCCCC1 [MLS000104838-01]	–	98%	944 nM	–	–	–	105%	128%	110%	97%	103%	–	–	–	–
COc1ccc(NC(=O)CN(C)C(=O)c2oc3c(ccc4ccccc43)c2C)cc1 [MLS002182882-01]	–	110%	531 nM	–	–	–	104%	160%	170%	88%	114%	–	–	–	–
CC1CCCN(Cc2c(O)ccc3c(=O)c(-c4ccc(Cl)cc4)coc23)C1 (centres unmarked) [MLS001196099-01]	–	113%	1880 nM	–	–	–	99%	102%	123%	105%	96%	–	–	–	–
CCCSc1ccc([C@H]2N[C@@](Cc3ccccc3)(C(=O)OC)[C@H]3C(=O)N(CC)C(=O)[C@@H]23)cc1 [MLS001362807-01]	–	109%	5310 nM	–	–	–	103%	115%	102%	124%	103%	–	–	–	–
Cc1[nH]c2c(C)cccc2c(=O)c1Br [MLS000036254-01]	107%	107%	5310 nM	Decrease	1120 nM	1120 nM	–	–	–	–	–	1580 nM	-5.800 M	–	–
Cc1ccc(Oc2ccc(NC(=O)c3ccco3)cc2)cc1 [MLS000111237-01]	–	–	10600 nM	Decrease	100 nM	100 nM	–	–	–	–	–	158 nM	-6.800 M	95.1%	–
COc1ccc(-c2c(C)nn3c(N)c(C#N)cnc23)cc1OC [MLS000718813-01]	–	–	1680 nM	Decrease	1260 nM	1260 nM	–	–	–	–	–	1410 nM	-5.850 M	108%	–
CN(CC(=O)Nc1cccc(F)c1)C(=O)c1ccc(-c2cccc(C(F)(F)F)c2)o1 [MLS001139679-01]	–	103%	668 nM	–	–	–	99%	156%	127%	81%	96%	–	–	–	–
COc1ccc(C)cc1N(C(=O)COc1cccc(F)c1)c1nc2ccccc2s1 [MLS000394477-01]	–	91%	5960 nM	–	–	–	106%	105%	106%	107%	110%	–	–	–	–
CC(C)(C)CC(C)(C)c1ccc(O)c(CN2CCN(CCC#N)CC2)c1 [MLS000026875-01]	–	112%	841 nM	–	–	–	97%	129%	117%	119%	112%	–	–	–	–
COc1ccccc1CNCC(O)(c1ccc(Cl)cc1)c1ccc(Cl)cc1 [MLS000325719-01]	–	95%	1500 nM	–	–	–	101%	101%	103%	108%	98%	–	–	–	–
CCOc1ccc(NC(=O)CN2C(=O)NC(C)(c3ccc(OC(F)F)cc3)C2=O)cc1 (centres unmarked) [MLS001193353-01]	–	109%	9440 nM	–	–	–	103%	120%	108%	48%	87%	–	–	–	–
COc1cc(O)c(C(CCN2CCN(c3ccccc3)CC2)c2ccc3c(c2)OCO3)c(OC)c1 (centres unmarked) [MLS000879526-01]	–	117%	841 nM	–	–	–	96%	105%	112%	97%	92%	–	–	–	–
CCOC(=O)c1cnc2c(C)cc(C)cc2c1O [MLS000530578-01]	–	–	4220 nM	–	1410 nM	1410 nM	–	–	–	–	–	–	–	–	104%
O=C(Nc1ccc(-c2csc(Nc3ccccc3)n2)cc1)c1cc([N+](=O)[O-])cc(C(F)(F)F)c1 [MLS000911606-01]	–	–	2110 nM	–	2820 nM	2820 nM	–	–	–	–	–	–	–	104%	–
CCOC(=O)c1ccc(N=C(S)N2CCN(CCNC3=CC(=O)CC(C)(C)C3)CC2)cc1 [MLS000710946-01]	–	96%	5960 nM	–	–	–	101%	118%	96%	134%	116%	–	–	–	–
CCOC(=O)c1c(NC(=O)c2ccccc2)sc2c(O)c(CN(CC)CC)ccc12 [MLS000523141-01]	–	91%	150 nM	–	–	–	102%	104%	107%	99%	98%	–	–	–	–
Fc1ccc(-c2csc3ncnc(Cl)c23)cc1 [MLS000590541-01]	–	111%	3350 nM	–	–	–	101%	115%	105%	120%	132%	–	–	–	–
COc1cc2ccccc2cc1C(=O)N1CC(C)CC(C)C1 (centres unmarked) [MLS001129394-01]	–	108%	2370 nM	–	–	–	98%	125%	114%	67%	101%	–	–	–	–
